Experimental data published in patent US5798375A, “Treatment of arteriosclerosis and xanthoma” (Sankyo Company, Limited, priority 1995, dated 1998).

Columns and labels:
Format in all cases: in vivo
WHHL rabbits [1] = experiment: Example 1: stenosis of the coronary arteries in WHHL rabbits; details: week 32
Method: (§1) WHHL rabbits [2-3 months of age, the Watanabe heritable hyperlipidemic rabbit described in Biochimica et Biophysica Acta, 960, 294-302 (1988)] were randomly assigned to a control group (7 animals, group A), a group receiving pravastatin alone (5 animals, Group B), a group receiving troglitazone alone (7 animals, Group C), and a group receiving a combination of both active substances (6 animals, Group D). Pravastatin was administered orally by gavage at a dose of 50 mg/kg/day once-daily and troglitazone was given in the diet, containing 100 mg/kg of the substance for 32 weeks. The ingested amount was limited to a daily 120 g per rabbit. Blood was withdrawn from the animal immediately before starting the study and 4, 8, 12, 16, 20, 24, 28 and 32 weeks after starting the study and the total cholesterol levels (mg/dl) were determined for each blood sample. The levels are reported as a percentage (%) of the levels measured immediately before starting the study. The animals were sacrificed and necropsied at week 32 to examine (a) the percent lesion area (%) in the total, thoracic or abdominal portion of the aorta; (b) the stenosis (%) of the coronary arteries and (c) the incidence (%) of xanthoma in the digital joints.
(§2) The values actually measured are represented as an average value±standard error in those Tables.

WHHL rabbits [2] = experiment: Example 1: incidence of xanthoma in the digital joints of WHHL rabbits
Method: as §1, §2

WHHL rabbits [3] = experiment: Example 1: percent lesion area of the aorta in WHHL rabbits; details: week 32, mean ± standard error, pravastatin 50 mg/kg/day, troglitazone in diet containing 100 mg/kg, * p < 0.05 vs control
Method: as §1, §2

`CC[C@H](C)C(=O)O[C@H]1C[C@H](O)C=C2C=C[C@H](C)[C@H](CC[C@@H](O)C[C@@H](O)CC(=O)O)[C@H]21` [Pravastatin, sodium 1,2,6,7,8,8a-hexahydro-6,8-tetrahydroxy-2-methyl-1-naphthaleneheptanoate] was tested, and the “Coronary stenosis, RCA (right coronary artery)” value (WHHL rabbits [1]; control 13) was 18%, the “Coronary stenosis, LAD (left anterior descending artery)” value (WHHL rabbits [1]; control 24) was 16% and the “Coronary stenosis, LSP (left septal artery)” value (WHHL rabbits [1]; control 40) was 9%. For the same compound, the “Coronary stenosis, LCX (left circumflex artery)” value (WHHL rabbits [1]; control 47) was 34%, the “Coronary stenosis, MLC (main left coronary artery)” value (WHHL rabbits [1]; control 61) was 71% and the “Coronary stenosis, MRC (main right coronary artery)” value (WHHL rabbits [1]; control 79) was 81%. The “Incidence of xanthoma, Foreleg” value (WHHL rabbits [2]; week 32, control 100 (14/14)) was 80%, the “Incidence of xanthoma, Hind leg” value (WHHL rabbits [2]; week 32, control 100 (14/14)) was 80% and the “Incidence of xanthoma, Total” value (WHHL rabbits [2]; week 32, control 100 (28/28)) was 80%. The “Lesion area, Abdominal aorta” value (WHHL rabbits [3]; control 29.9 ± 4.4) was 28.2 ± 8.1%, the “Lesion Area, Total Aorta” value (WHHL rabbits [3]; control 65.7 ± 3.9) was 53.8 ± 8.2% and the “Lesion area, Thoracic aorta” value (WHHL rabbits [3]; control 79.3 ± 5.4) was 64.6 ± 10.4%.
